The values that follow come from US20240300957A1, “TETRAZOLE-SUBSTITUTED ETHYL-SULFONE / SULFOXIMINE-PYRIDINE DERIVATIVES” (Boehringer Ingelheim Vetmedica GmbH, priority 2023, published 2024).

One assay deals with adult C. felis fleas. Description: Ingestion activity against adult Ctenocephalides felis (artificial membrane feeding, bovine blood). As to conditions: bovine blood via artificial membrane, motility 48 h post treatment, read-out: EC50 (ingestion activity, % motility reduction). Type of assay: in vivo. How it is done:
Example 6: Screening Method to Test Ingestion Activity of Compounds of Formula (I), (Ia) or (Ib) Against Adult Ctenocephalides felis Compounds of formula (I), (Ia) and (Ib) dissolved in 100% DMSO are added to bovine blood and offered via an artificial membrane feeding system to adult C. felis fleas. The motility of fleas is then visually inspected 48 h post treatment. Efficacy is expressed in % motility reduction compared to controls containing blood treated with DMSO only. A dose response series is implemented to determine EC50 values.

The subject of another assay is Plutella xylostella. Description: Insecticidal test on Plutella xylostella (Chinese cabbage seedling dip). Conditions: 144 h, 6 days after dip treatment, 25° C., read-out: activity level (corrected mortality rate). Type of assay: in vivo. How it is done:
Example 14: Insecticidal Test on Plutella xylostella
The compounds of formula (I), (Ia) and (Ib) of the present invention or salts thereof are separately dispersed in water and diluted to 50 ppm. Ten adults of Plutella xylostella are released onto Chinese cabbage seedlings and allowed to lay eggs thereon. 2 days after the release of the adults, the seedling is dipped in the dispersion for about 30 seconds. After air dried, the seedling is kept in a room at 25° C. 6 days after the dip treatment, the numbers of the dead and alive insects are counted. The corrected mortality rate is calculated according to the following formula and the insecticidal activity was evaluated according to the following criteria.
[formula] • A: the corrected mortality rate is 100% • B: the corrected mortality rate is 90 to 99% • C: the corrected mortality rate is 80 to 89% • D: the corrected mortality rate is 50 to 79%

Assay [1] deals with adult R. sanguineus ticks. Nature of the assay: Contact activity against adult Rhipicephalus sanguineus (coated vial). Type of assay: in vivo. As to conditions: mortality at 48 hours post-treatment, 24° C., 95% relative humidity, read-out: EC50 (contact activity, percentage mortality). On the procedure: Screening Method to Test Contact Activity of Compounds of Formula (I), (Ia) or (Ib) Against Adult Rhipicephalus Sanguineus Compounds of formula (I), (Ia) and (Tb) formulated in 100% DMSO are diluted in a solution containing acetone and Triton X-100 (0.02%). The resulting formulation is used to coat the inner walls of glass scintillation vials and the filter paper covering the cap of the vial. Once dried, ten adult R. sanguineus ticks are added to the vials. The vials are incubated at 24° C., 95% relative humidity, and 12 hours of light/12 hours of dark until evaluation. Ticks are visually evaluated for mortality at 48 hours post-treatment. Compound efficacy at a given dose is expressed as percentage mortality. A dose response series is implemented to determine EC50 values.

Assay [2] deals with 3rd-instar nymphs of Laodelphax striatellus. Description: Insecticidal test on Laodelphax striatellus (rice seedling dip). Type of assay: in vivo. As to conditions: 192 h, 8 days after inoculation, 25° C., read-out: activity level (corrected mortality rate).
For assay [3], the system named is adult Ctenocephalides felis fleas. Description: Contact activity against adult Ctenocephalides felis (coated pipe cleaner in vial). Conditions: adult C. felis, mortality at 72 hours post-treatment, 22° C., 80% relative humidity, read-out: EC50 (contact activity, percentage mortality). Type of assay: in vivo. How it is done:
Example 4: Screening Method to Test Contact Activity of Compounds of Formula (I), (Ia) or (Ib) Against Adult Ctenocephalides felis
Compounds of formula (I), (Ia) and (Ib) dissolved in 100% DMSO are diluted in acetone to a desired concentration. The resulting formulation is used to coat the fibers of a 0.5-inch-long piece of pipe cleaner placed in a glass scintillation vial. The vial is capped with a rubber gasket and filter paper insert. After the acetone has evaporated, ten adult Ctenocephalides felis fleas are added to each vial. The vials are then incubated at 22° C., 80% relative humidity, and 12 hours of light/12 hours of dark until a visual evaluation for mortality is performed at 72 hours post-treatment. Compound efficacy at a given dose is expressed as percentage mortality and adjusted to remove background mortality observed in control vials containing DMSO only. A dose response series of treated vials is implemented to determine EC50 values.

Assay [4] concerns 2nd-instar larvae of Spodoptera litura. Nature of the assay: whole plant or invertebrate. As to conditions: in Brassica oleracea, foliar, 192 h, read-out: activity level (corrected mortality rate).

For the molecule `CCS(=O)(=O)c1cc(-c2nnnn2C2CC2)cnc1-c1nc2cc(C(F)(F)C(F)(F)F)nnc2n1C` [Compound 1, 6-[5-(1-cyclopropyltetrazol-5-yl)-3-ethylsulfonyl-2-pyridyl]-7-methyl-3-(1,1,2,2,2-pentafluoroethyl)imidazo[4,5-c]pyridazine], the figures for the EC50 (with adult C. felis fleas; in assay [1]) were under 10 µM and 10 to 100 µM, respectively. The mortality at 50 ppm (with Plutella xylostella; in assay [2]) was 100% in each case.
With `CCS(=O)(=O)c1cc(-n2nnnc2C2CC2)cnc1-c1nc2cc(C(F)(F)C(F)(F)F)nnc2n1C` [Compound 2, 6-[5-(5-cyclopropyltetrazol-1-yl)-3-ethylsulfonyl-2-pyridyl]-7-methyl-3-(1,1,2,2,2-pentafluoroethyl)imidazo[4,5-c]pyridazine], in the assay on adult C. felis fleas, the EC50 lay in the range of 10 to 100 µM.
Regarding `CCS(=O)(=O)c1cc(-c2nnnn2C)cnc1-c1nc2cc(C(F)(F)C(F)(F)F)nnc2n1C` [Compound 4], the EC50 in the assay with adult C. felis fleas is under 10 µM. The mortality at 50 ppm in assay [2] was 100%.
Take `CCn1nnnc1-c1cnc(-c2nc3cc(C(F)(F)C(F)(F)F)nnc3n2C)c(S(=O)(=O)CC)c1` [Compound 6]: in the assay on adult C. felis fleas, the half-maximal effective concentration (EC50) was under 10 µM.
For the molecule `CCS(=O)(=O)c1cc(-c2nnn(C)n2)cnc1-c1nc2cc(C(F)(F)C(F)(F)F)nnc2n1C` [Compound 7, 6-[3-ethylsulfonyl-5-(2-methyltetrazol-5-yl)-2-pyridyl]-7-methyl-3-(1,1,2,2,2-pentafluoroethyl)imidazo[4,5-c]pyridazine], the EC50 is 10 to 100 µM in the assay with adult C. felis fleas, 10 to 100 µM in assay [1] and under 10 µM in assay [3].
With `CCS(=O)(=O)c1cc(-c2nnn(C)n2)cnc1-c1ncc(C(=O)NCC(F)(F)F)n1C` [Compound 8], the concentration giving a half-maximal response (EC50) in the assay on adult C. felis fleas is 10 to 100 µM.
For the molecule `CCS(=O)(=O)c1cc(-c2nnn(C)n2)cnc1-c1nc2cc(S(=O)(=O)C(F)(F)F)nnc2n1C` [Compound 9], the concentration giving a half-maximal response (EC50) in the assay on adult C. felis fleas was under 10 µM. The mortality at 50 ppm (with Plutella xylostella; in assay [4]; in assay [2]) was 100% each time.
For `CCS(=O)(=O)c1cc(-c2nnn(C(C)C)n2)cnc1-c1nc2cc(C(F)(F)C(F)(F)F)nnc2n1C` [Compound 10], the mortality at 50 ppm (in the assay on Plutella xylostella; in assay [2]) was 100% each time. Besides, the EC50 in assay [1] is under 10 µM.
`CCS(=O)(=O)c1cc(-n2nnnc2C)cnc1-c1nc2cc(C(F)(F)C(F)(F)F)nnc2n1C` [Compound 12]: in the assay on adult C. felis fleas, the concentration giving a half-maximal response (EC50) was in the range of 10 to 100 µM.
`CCS(=O)(=O)c1cc(-c2nnn(C)n2)cnc1-c1nc2cc(C(F)(F)C(F)(F)F)cnc2n1C` [Compound 14]: the EC50 is under 10 µM in the assay on adult C. felis fleas, 10 to 100 µM in assay [1] and 10 to 100 µM in assay [3]. Also, the mortality at 50 ppm (in the assay on Plutella xylostella; in assay [4]) was 100% throughout.
Consider `CCS(=O)(=O)c1cc(-c2nnnn2C)cnc1-c1nc2cc(C(F)(F)C(F)(F)F)cnc2n1C` [Compound 15], for which, in the assay on adult C. felis fleas, the EC50 was under 10 µM. For the same molecule, the mortality at 50 ppm in the assay on Plutella xylostella was 100%.
For `CCS(=O)(=O)c1cc(-c2nnnn2-c2ccccc2)cnc1-c1nc2cc(C(F)(F)C(F)(F)F)nnc2n1C` [Compound 16], in the assay on Plutella xylostella, the mortality at 50 ppm came out at 100%.
